Results on eleven molecules are retold here after US11504364B2, “Inhibitors of fibroblast activation protein” (Praxis Biotech LLC, priority 2018, dated 2022).

Like-named read-outs stand apart in the source and are kept apart here.

For data set [1], the target named is recombinant human FAPα (rhFAPα) (Homo sapiens (Human), UniProt Q12884). Nature of the data set: FAPα enzymatic exopeptidase (dipeptidase) activity assay, Z-Gly-Pro-AMC. It counts as biochemical. The conditions noted are these: for inhibition at 1 µM / rhFAPα (% exo inh @ 1 μM): 1 μM test compound, exopeptidase; for inhibition at 1 µM: read-out: rhFAPα (% exo inh @ 1 μM).

The target in data set [2] is recombinant human PREP (rhPREP) (Homo sapiens (Human), UniProt P48147). Nature of the data set: PREP enzymatic activity assay. Type of data set: biochemical. The note with it: Table 3B.
The target in data set [3] is recombinant human DPPIV (rhDPPIV) (Homo sapiens (Human), UniProt P27487). Nature of the data set: DPPIV enzymatic activity assay. It counts as biochemical. The note with it: Table 3B.
The target of data set [4] is T1, recombinant human DPP9 (rhDPP9) (Homo sapiens (Human), UniProt Q86TI2). Nature of the data set: Inhibition of DPP9 activity, 10 ng rhDPP9, H-Gly-Pro-AMC. It counts as biochemical. The conditions noted are these: Table 3B.
For data set [5] the following is noted: upon standing in pH 7.8; cyclization; cited from earlier work.
Data set [6] deals with human AML cell line MV4-11. As to the kind of experiment: Cytotoxicity assay in human leukemia cell lines (Cell-Titer Glo).
The target of data set [7] is recombinant mouse PREP (rmPREP) (Mus musculus (Mouse), UniProt Q9QUR6). As to the kind of experiment: PREP enzymatic activity assay. It counts as biochemical. The note with it: Table 3A.
The target in data set [8] is recombinant mouse FAPα (rmFAPα) (Mus musculus (Mouse), UniProt P97321). As to the kind of experiment: FAPα enzymatic exopeptidase (dipeptidase) activity assay, Z-Gly-Pro-AMC. Type of data set: biochemical. The note with it: 1 μM test compound.
In data set [9] the target is recombinant mouse DPPIV (rmDPPIV) (Mus musculus (Mouse), UniProt P28843). As to the kind of experiment: DPPIV enzymatic activity assay. Type of data set: biochemical. The note with it: Table 3A.
The target in data set [10] is T1, recombinant human DPP9 (rhDPP9). Nature of the data set: DPP9 enzymatic activity assay. It counts as biochemical. The conditions noted are these: Table 3A.
Data set [11] deals with circulating FAPα from hamster plasma (Mesocricetus auratus, UniProt A0ABM2XF29). As to the kind of experiment: Ex vivo inhibition of circulating FAPα activity in hamster plasma (PRXS-AMC). Type of data set: biochemical, Golden Syrian hamster. The note with it: PRXS-AMC substrate. Here is the method: Male Golden Syrian hamsters were provided by National Laboratory Animal Center (NLAC) in Taiwan. The animals were maintained in a hygienic environment under controlled temperature (20-24° C.) and humidity (50%-80%) with 12 hours light/dark cycles. Free access to standard lab diet [MFG (Oriental Yeast Co., Ltd. Japan)] and autoclaved tap water were granted. All aspects of this work including housing, experimentation and disposal of animals were performed in general accordance with the “Guide for the Care and Use of Laboratory Animals: Eighth Edition” (National Academies Press, Washington, D.C., 2011). In addition, the animal care and use protocol was reviewed and approved by the IACUC at Pharmacology Discovery Services Taiwan, Ltd. Immediately after the sacrifice of hamsters, blood samples were collected via terminal cardiac puncture in tubes coated with EDTA-K2, mixed gently, then kept on ice and centrifuged at 2,500×g for 15 minutes at 4° C. After plasma separation, samples were stored at −80° C. in aliquots of […]. To assay exemplary compounds in hamster plasma, a similar protocol as described for human plasma was performed diluting thawed plasma 1:2 in assay buffer. […] AMC release was detected measuring fluorescence at an excitation/emission wavelength of 380/460 nm using a Multifunction Microplate Reader. […]

Where [12] appears, read: Homo sapiens, MV4-11, 48 h, read-out: MV4-11 viability IC50, μM.

T1 sequence (Q86TI2 whole entry): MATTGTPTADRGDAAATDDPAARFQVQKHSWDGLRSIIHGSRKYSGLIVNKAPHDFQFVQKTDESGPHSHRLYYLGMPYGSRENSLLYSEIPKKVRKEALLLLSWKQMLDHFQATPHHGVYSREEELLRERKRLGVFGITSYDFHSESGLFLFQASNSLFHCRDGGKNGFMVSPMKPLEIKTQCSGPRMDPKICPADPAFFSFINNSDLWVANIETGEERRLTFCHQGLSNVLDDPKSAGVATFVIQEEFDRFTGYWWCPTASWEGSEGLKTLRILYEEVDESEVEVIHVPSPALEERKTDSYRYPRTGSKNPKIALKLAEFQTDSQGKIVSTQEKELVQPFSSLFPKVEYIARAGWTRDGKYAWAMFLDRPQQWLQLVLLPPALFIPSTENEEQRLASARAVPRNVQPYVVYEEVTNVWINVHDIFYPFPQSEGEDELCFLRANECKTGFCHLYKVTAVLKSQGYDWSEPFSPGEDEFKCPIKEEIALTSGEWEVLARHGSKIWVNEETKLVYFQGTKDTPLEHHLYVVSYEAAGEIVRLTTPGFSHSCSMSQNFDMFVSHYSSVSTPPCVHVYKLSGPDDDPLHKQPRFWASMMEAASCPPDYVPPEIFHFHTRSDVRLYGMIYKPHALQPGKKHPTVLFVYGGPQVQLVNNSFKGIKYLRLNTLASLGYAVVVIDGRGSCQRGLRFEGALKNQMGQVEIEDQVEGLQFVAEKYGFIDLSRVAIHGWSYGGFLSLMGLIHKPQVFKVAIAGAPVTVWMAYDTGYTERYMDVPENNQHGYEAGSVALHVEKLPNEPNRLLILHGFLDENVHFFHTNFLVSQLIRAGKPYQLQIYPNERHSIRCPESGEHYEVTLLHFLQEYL
Chain of recombinant human PREP (rhPREP) (P48147 whole entry): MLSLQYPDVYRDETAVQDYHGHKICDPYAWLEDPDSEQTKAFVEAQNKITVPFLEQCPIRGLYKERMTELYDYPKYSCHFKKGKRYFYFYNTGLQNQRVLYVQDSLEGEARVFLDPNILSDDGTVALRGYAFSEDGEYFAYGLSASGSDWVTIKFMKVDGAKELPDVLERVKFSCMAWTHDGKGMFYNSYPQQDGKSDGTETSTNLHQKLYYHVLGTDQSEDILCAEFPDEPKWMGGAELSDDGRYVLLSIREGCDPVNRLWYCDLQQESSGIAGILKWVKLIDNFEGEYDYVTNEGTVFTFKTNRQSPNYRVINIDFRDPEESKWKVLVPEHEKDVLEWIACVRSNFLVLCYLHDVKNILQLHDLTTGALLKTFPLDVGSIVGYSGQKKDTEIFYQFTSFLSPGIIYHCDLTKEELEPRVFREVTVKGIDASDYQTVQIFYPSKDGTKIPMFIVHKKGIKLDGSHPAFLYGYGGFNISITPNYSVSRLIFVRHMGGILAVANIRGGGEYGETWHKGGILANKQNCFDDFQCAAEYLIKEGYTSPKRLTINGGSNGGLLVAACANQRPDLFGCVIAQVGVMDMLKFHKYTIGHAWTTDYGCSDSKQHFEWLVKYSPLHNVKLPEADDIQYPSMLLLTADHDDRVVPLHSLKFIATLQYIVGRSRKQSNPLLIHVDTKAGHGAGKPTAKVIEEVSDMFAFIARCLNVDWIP
Chain of recombinant human DPPIV (rhDPPIV) (P27487 whole entry): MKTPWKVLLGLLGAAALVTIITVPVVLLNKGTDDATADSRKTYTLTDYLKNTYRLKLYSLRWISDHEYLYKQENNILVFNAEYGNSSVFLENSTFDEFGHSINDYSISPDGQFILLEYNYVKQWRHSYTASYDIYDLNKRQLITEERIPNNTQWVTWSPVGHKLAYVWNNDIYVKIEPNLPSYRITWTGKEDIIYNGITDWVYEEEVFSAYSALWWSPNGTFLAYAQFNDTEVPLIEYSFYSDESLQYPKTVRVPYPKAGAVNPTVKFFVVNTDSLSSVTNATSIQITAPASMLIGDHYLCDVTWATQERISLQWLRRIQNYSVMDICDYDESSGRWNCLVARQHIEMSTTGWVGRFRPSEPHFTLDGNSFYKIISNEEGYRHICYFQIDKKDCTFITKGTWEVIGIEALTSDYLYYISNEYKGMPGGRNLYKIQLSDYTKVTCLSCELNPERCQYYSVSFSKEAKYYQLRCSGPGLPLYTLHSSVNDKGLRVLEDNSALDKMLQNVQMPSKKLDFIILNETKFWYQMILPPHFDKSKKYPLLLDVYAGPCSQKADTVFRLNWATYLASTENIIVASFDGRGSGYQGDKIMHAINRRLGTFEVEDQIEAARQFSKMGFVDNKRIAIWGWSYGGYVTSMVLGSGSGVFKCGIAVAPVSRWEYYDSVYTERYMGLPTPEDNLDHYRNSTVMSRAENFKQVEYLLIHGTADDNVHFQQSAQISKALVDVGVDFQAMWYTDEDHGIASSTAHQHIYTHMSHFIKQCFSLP
Chain of recombinant human FAPα (rhFAPα) (Q12884 whole entry): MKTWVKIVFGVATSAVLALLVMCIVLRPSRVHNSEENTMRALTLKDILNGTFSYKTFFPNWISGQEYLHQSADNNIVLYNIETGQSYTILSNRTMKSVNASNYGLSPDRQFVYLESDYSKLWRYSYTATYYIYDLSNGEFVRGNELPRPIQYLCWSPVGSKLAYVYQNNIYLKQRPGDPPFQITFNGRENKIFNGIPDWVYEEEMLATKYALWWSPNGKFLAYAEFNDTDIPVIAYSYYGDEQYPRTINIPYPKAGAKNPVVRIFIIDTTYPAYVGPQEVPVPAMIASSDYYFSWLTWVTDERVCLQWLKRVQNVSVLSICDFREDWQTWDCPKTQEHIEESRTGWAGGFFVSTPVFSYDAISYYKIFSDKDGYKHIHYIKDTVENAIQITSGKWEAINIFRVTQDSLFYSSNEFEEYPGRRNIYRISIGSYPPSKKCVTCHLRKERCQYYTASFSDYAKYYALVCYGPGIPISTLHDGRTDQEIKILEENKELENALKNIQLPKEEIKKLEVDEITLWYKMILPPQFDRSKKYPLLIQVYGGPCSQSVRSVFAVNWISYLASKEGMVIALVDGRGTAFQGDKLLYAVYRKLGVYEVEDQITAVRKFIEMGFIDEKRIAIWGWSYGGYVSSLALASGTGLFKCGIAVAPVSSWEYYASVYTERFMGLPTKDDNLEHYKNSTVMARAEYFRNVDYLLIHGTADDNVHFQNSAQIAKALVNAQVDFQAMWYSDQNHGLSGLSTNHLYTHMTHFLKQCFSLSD
Chain of recombinant mouse FAPα (rmFAPα) (P97321 whole entry): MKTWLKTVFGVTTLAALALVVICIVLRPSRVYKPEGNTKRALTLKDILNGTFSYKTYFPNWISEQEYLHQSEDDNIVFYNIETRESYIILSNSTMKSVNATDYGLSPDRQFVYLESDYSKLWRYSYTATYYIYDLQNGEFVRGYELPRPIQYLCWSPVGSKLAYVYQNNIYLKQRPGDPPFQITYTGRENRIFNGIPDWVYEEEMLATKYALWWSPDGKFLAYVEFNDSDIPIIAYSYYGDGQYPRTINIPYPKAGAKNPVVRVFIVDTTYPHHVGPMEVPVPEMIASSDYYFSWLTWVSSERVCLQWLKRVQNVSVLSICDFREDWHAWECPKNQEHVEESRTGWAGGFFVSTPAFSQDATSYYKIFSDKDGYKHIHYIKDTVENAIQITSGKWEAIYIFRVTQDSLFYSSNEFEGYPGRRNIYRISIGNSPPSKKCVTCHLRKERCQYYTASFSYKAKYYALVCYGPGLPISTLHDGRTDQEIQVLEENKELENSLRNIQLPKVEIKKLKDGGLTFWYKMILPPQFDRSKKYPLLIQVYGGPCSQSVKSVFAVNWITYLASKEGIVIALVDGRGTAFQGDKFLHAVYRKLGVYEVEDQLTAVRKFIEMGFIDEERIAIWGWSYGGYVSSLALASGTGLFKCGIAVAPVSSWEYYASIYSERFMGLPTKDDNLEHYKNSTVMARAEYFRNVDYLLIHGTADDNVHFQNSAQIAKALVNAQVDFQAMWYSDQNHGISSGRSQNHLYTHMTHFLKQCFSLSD
Chain of recombinant mouse DPPIV (rmDPPIV) (P28843 whole entry): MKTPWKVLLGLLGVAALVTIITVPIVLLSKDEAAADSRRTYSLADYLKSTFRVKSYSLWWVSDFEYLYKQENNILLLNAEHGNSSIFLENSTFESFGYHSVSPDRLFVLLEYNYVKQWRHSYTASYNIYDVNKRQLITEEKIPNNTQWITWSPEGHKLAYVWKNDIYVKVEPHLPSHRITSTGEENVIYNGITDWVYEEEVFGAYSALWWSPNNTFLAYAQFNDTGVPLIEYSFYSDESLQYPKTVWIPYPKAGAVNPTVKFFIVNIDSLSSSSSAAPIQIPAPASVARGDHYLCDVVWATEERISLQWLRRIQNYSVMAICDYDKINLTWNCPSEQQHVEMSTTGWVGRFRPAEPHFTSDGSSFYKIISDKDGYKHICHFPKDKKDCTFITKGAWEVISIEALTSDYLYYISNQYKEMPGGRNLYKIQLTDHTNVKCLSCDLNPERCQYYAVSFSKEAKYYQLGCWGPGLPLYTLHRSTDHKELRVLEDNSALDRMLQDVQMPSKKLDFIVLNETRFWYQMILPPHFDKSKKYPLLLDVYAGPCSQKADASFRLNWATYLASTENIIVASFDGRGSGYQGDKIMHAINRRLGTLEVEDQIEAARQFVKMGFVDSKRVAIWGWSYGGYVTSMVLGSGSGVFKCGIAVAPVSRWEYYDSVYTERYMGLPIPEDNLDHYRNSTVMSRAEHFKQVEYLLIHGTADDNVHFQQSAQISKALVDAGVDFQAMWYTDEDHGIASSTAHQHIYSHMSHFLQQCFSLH

Take `C[C@H](NC(=O)c1ccncc1-c1ccccc1)C(=O)N1CC(F)(F)C[C@H]1C#N` [Compound 127]: the IC50 in data set [1] is above 10 µM; in [2] it was above 10 µM; in data set [3], above 10 µM; in [4] it was above 10000 nM. The inhibition at 1 µM in [1] (Table 3B) was below 25%.

In the case of `CC(C)[C@H](N)C(=O)N1CCC[C@H]1B(O)O` [Val-boroPro, reference compound], the “stability of protease inhibitory activity” value in [5] is reported as “rapidly loses protease inhibitory activity”. The IC50 in [6] (read-out: MV4-11 viability IC50, 48 hours post-treatment, Cell-Titer Glo) was below 3 µM.

Regarding `N#C[C@@H]1CC(F)(F)CN1C(=O)CNC(=O)c1ccnc2ccc(/C=C/c3ccc4c(c3)CCNC4=O)cc12` [Compound 38], the concentration for half-maximal inhibition (IC50) was below 1 µM in data set [1], above 10 µM in data set [6] (setting [12]) and below 1000 nM in data set [4]. Besides, the inhibition at 1 µM in data set [1] (Table 3B) is above 50%.

Take `N#C[C@@H]1CC(F)(F)CN1C(=O)CNC(=O)c1ccnc2ccc(-c3ccc4c(c3)CCC(=O)N4)cc12` [Compound 16, (S)—N-(2-(2-cyano-4,4-difluoropyrrolidin-1-yl)-2-oxoethyl)-2′-oxo-1′,2′,3′,4′-tetrahydro-[6,6′-biquinoline]-4-carboxamide]: the half-maximal inhibitory concentration (IC50) in data set [6] (setting [12]) is above 10 µM; in data set [3], 1 to 10 µM; in [4], below 1000 nM.

Consider `N#C[C@@H]1CC(F)(F)CN1C(=O)CNC(=O)c1ccnc2ccccc12` [Ref. Comp.], for which the “rhFAPα (% exo inh @ 1 μM)” value in data set [1] and in data set [1] (Table 3B) was “+++ (+++ refers to > 50% inhibition at 1 μM test compound)” each time. Moreover, the IC50 in [7] and in data set [9] was above 10 µM throughout. In addition, in data set [8], the “rmFAPα (% exo inh @ 1 μM)” value was “+++ (+++ refers to > 50% inhibition at 1 μM test compound)”.

Take `C[C@@H](NC(=O)c1ccncc1-c1ccccc1)C(=O)N1CC(F)(F)C[C@H]1C#N` [Compound 126]: the IC50 in [1] is above 10 µM; in [2], above 10 µM; in data set [3], above 10 µM; in data set [4] it was above 10000 nM. Further, the inhibition at 1 µM in data set [1] (Table 3B) is below 25%.

On to `CN1C(=O)CCc2cc(-c3ccc4nccc(C(=O)NCC(=O)N5CC(F)(F)C[C@H]5C#N)c4c3)ccc21` [Compound 110], for which the concentration for half-maximal inhibition (IC50) was below 3 µM in data set [6] (setting [12]), above 10 µM in [3] and below 1000 nM in data set [4].

For `N#C[C@@H]1CC(F)(F)CN1C(=O)CNC(=O)c1ccnc2ccc(-c3ccc(Cl)cc3)cc12` [Compound 2, (S)-6-(4-chlorophenyl)-N-(2-(2-cyano-4,4-difluoropyrrolidin-1-yl)-2-oxoethyl)quinoline-4-carboxamide], the IC50 is below 1000 nM in data set [10], below 1000 nM in [11], 3 to 10 µM in [6] (setting [12]) and below 1000 nM in data set [4].

Consider `CC(C)[C@H](NC(=O)c1ccnc2ccc(-c3ccc(Cl)cc3)cc12)C(=O)N1CC(F)(F)C[C@H]1C#N` [Compound 29], for which, in [1] (Table 3B), the inhibition at 1 µM is below 25%. Further, the IC50 is above 10 µM in data set [2], 1 to 10 µM in data set [3] and above 10000 nM in [4].

Consider `CC(C)[C@@H](NC(=O)c1ccnc2ccc(-c3ccc(Cl)cc3)cc12)C(=O)N1CC(F)(F)C[C@H]1C#N` [Compound 28], for which, in data set [1] (Table 3B), the inhibition at 1 µM is below 25%. Moreover, the 50% inhibitory concentration (IC50) in data set [2] was above 10 µM; in data set [3], above 10 µM; in [4], above 10000 nM.

Regarding `N#C[C@@H]1CC(F)(F)CN1C(=O)CNC(=O)c1ccnc2ccc(/C=C/c3ccncc3)cc12` [Compound 19, (S,E)-N-(2-(2-cyano-4,4-difluoropyrrolidin-1-yl)-2-oxoethyl)-6-(2-(pyridin-4-yl)vinyl)quinoline-4-carboxamide], the values for the concentration for half-maximal inhibition (IC50) in data set [6] (setting [12]), in [3] and in data set [4] were below 3 µM, 1 to 10 µM and below 1000 nM, respectively.
